The subject of series [1] is NL4–3 Env pseudo-typed HIV-1 virus. The series is described as follows: ELISA-based quantification of capsid. Format: cell-based. The conditions noted are these: 10 μM compound.
The target of series [2] is recombinant HIV-1 RT (Human immunodeficiency virus type 1 group M subtype B, UniProt P03366). The series is described as follows: Recombinant HIV-1 RT inhibitory assay. Format: biochemical. The conditions noted are these: at 0.2 μM.
Series [3] can be described thus: in vitro. As to conditions: human, microsomes.
A short description of series [4]: In vivo pharmacokinetics in rats. The conditions noted are these: rat, iv 2 mg/kg.
Series [5] deals with Kunming mice. Kind of series: Single-dose acute toxicity in mice. The conditions noted are these: intragastric.

“Also recorded” adds a separate entry of the source.

Turning to `COc1ccc(N(C)C(=O)[C@H](Cc2ccccc2)NC(=O)CNS(=O)(=O)c2cccc(F)c2)cc1` [Compound 6k, (S)-2-(2-((3-fluorophenyl)sulfonamido)acetamido)-N-(4-methoxyphenyl)-N-methyl-3-phenylpropanamide], the “increase of CA/p24 content of the produced virus compared to the DMSO control” value (from here on “increase”) in series [1] is on record as 0–20%.

Consider `COc1ccc(N(C)C(=O)[C@H](Cc2ccccc2)NC(=O)CN2C(=O)Nc3ccccc3S2(=O)=O)cc1` [Compound 8a, (S)-2-(2-(1,1-dioxido-3-oxo-3,4-dihydro-2H-benzo[e][1,2,4]thiadiazin-2-yl)acetamido)-N-(4-methoxyphenyl)-N-methyl-3-phenylpropanamide], for which the “increase” value in series [1] is listed as 0–20%.

Consider `COc1ccc(N(C)C(=O)[C@H](Cc2ccccc2)NC(=O)CN2CCN(S(=O)(=O)c3ccc(N)cc3)CC2=O)cc1` [Compound 11l, (S)-2-(2-(4-((4-aminophenyl)sulfonyl)-2-oxopiperazin-1-yl)acetamido)-N-(4-methoxyphenyl)-N-methyl-3-phenylpropanamide], for which the “increase” value in series [1] was 0–20%. Moreover, in series [2], the “RT activity as compared to the DMSO control” value is recorded as 95±15%. The CLint scaled in series [3] turned out to be 308 mL/min/kg. Further, the V in series [4] amounted to 5.7524 L/kg. Besides, in series [5] (1000 mg/kg), the “death after single dose” value is listed as “No death was observed”. Besides, in series [5] (single dose 1000 mg/kg, one week), the “acute toxicity / tolerability” value is listed as “no acute toxicity; also recorded: well-tolerated”.

As for `O=C(O)Cc1ccccc1Nc1c(Cl)cccc1Cl` [Diclofenac], in series [3], the intrinsic metabolic clearance (CLint scaled) was 84.3 mL/min/kg.

Turning to `Cc1[nH]c2ccccc2c1CC(=O)N[C@@H](Cc1ccccc1)C(=O)N(C)c1ccccc1` [PF-74, reference compound], the “increase” value in series [1] is reported as “around 40%”. Further, the CLint scaled in series [3] was determined as 972 mL/min/kg.

On to `C[C@]12CC[C@H]3[C@@H](CCC4=CC(=O)CC[C@@]43C)[C@@H]1CC[C@@H]2O` [Testosteron^e, Testosterone], for which the “CLint(mic)” value (HLM 0.5 mg protein/mL) was 95.2 µL/min/mg. The “Remaining (T=60min)” value (HLM 0.5 mg protein/mL, 60 min) is 6.1%. For the same compound, the “Remaining (NCF=60min)” value (no cofactor (no NADPH), 60 min) is 84.0%. Further, the CLint scaled in series [3] was found to be 85.7 mL/min/kg.

The values above are taken from publication PMC8011991 (Journal of medicinal chemistry, 2020).
